Consider one molecule from patent US20240417404A1, “CRYSTALLINE FORMS OF N-[4-[4-(4-MORPHOLINYL)-7H-PYRROLO[2,3-d]PYRIMIDIN-6-YL]PHENYL]-4-[[3(R)-[(1-OXO-2-PROPEN-1-YL)AMINO]-1-[sequence]]METHYL]-2-PYRIDINECARBOXAMIDE AS IRREVERSIBLE INHIBITORS OF MENIN-MLL INTERACTION” (BIOMEA FUSION, INC., priority 2023, published 2024).

≈ marks a conversion by molar mass, not a printed value. Bounds are passed on as bounds.

A short description of data set [1]: Solid form stability (XRPD after storage, conversion in MeOH/water, thermal). The format is physicochemical. As to the method:
X-ray powder diffraction patterns were collected on a Bruker AXS C2 GADDS or Bruker AXS D8 diffractometer.
X-ray Powder Diffraction patterns were collected on a Bruker AXS C2 GADDS diffractometer using Cu Kα radiation (40 kV, 40 mA), automated XYZ stage, laser video microscope for auto-sample positioning, and a HiStar 2-dimensional area detector. X-ray optics consists of a single Göbel multilayer mirror coupled with a pinhole collimator of 0.3 mm. A weekly performance check is carried out using a certified standard NIST 1976 Corundum (flat plate). The beam divergence (i.e., the effective size of the X-ray beam on the sample) was approximately 4 mm. A θ-θ continuous scan mode was employed with a sample—detector distance of 20 cm which gives an effective 2θ range of 3.2°-29.7°. Typically the sample would be exposed to the X-ray beam for 120 seconds. The software used for data collection was GADDS for WNT 4.1.16 and the data were analyzed and presented using Diffrac Plus EVA v11.0.0.2 or v13.0.0.2.
X-ray Powder Diffraction patterns were collected on a Bruker D8 diffractometer using Cu Kα radiation (40 kV, 40 mA), θ-2θ goniometer, and divergence of V4 and receiving slits, a Ge monochromator and a Lynxeye detector. The instrument is performance checked using a certified Corundum standard (NIST 1976). The software used for data collection was Diffrac Plus XRD Commander v2.5.0 and the data were analysed and presented using Diffrac Plus EVA v11.0.0.2 or v13.0.0.2. Samples were run under ambient conditions as flat plate specimens using powder as received. The sample was gently packed into a cavity cut into a polished, zero-background (510) silicon wafer. The sample was rotated via its own plane during analysis. The details of the data collection are: • Angular range: 2 to 42 02θ • Step size: 0.05 02θ • Collection time: 0.5 s/step

Data set [2] in a line: Hygroscopicity (water absorption versus relative humidity). In kind it is physicochemical. Conditions: from 40% RH to 70% RH at 25° C.
A further data set in a line: physchem. To be noted: pH 4.5, aqueous buffer, observed aqueous solubility.
The nature of data set [3]: Solubility of Compound A crystalline forms in aqueous buffers and biorelevant media. To be noted: aqueous buffer, solubility, water, pH 4.5 acetate buffer, pH 6.8 phosphate buffer, pH 5.0 FeSSIF-v1 and pH 6.5 FaSSIF-v1.

In general, solubility refers to how much of the substance goes into solution per volume.

With `C=CC(=O)N[C@@H]1CCCN(Cc2ccnc(C(=O)Nc3ccc(-c4cc5c(N6CCOCC6)ncnc5[nH]4)cc3)c2)C1` [Form K, N-[4-[4-(4-morpholinyl)-7H-pyrrolo[2,3-d]pyrimidin-6-yl]phenyl]-4-[[3(R)-[(1-oxo-2-propen-1-yl)amino]-1-piperidinyl]methyl]-2-pyridinecarboxamide], the “XRPD pattern post storage” value in data set [1] (closed container at 60° C. and 75% RH for at least a week) is “substantially the same X-ray powder diffraction (XRPD) pattern”; in data set [1] (open container at 25° C. and 92% RH for at least a week) it was “substantially the same X-ray powder diffraction (XRPD) pattern”; in data set [1] (open container at 40° C. and 75% RH for at least a week), “substantially the same X-ray powder diffraction (XRPD) pattern”. In addition, the Stability entry in data set [1] (polymorph stability, K converted into Pattern D in MeOH/water mixture (water activity from 0 to 1), listed as K) is on record as “Low-Converted into”. The “Stability (thermal)” value in data set [1] (thermal) is “But thermally very stable”. The “observed hygroscopicity and absorption of water” value in data set [2] is “about 2.1%”. Also, the solubility is approximately 4 µg/mL (≈ 7.06 µM) in the data set “physchem” and less than 35 µg/mL in data set [3].
